Values quoted from earlier work, collected in patent US6183121A, “Hepatitis C virus helicase crystals and coordinates that define helicase binding pockets” (priority 1998, dated 2001).

Molecular target: UvrD helicase, mutation of a conserved arginine in motif IV (Escherichia coli, UniProt P03018, R284A)
Conditions: mutant versus unmutated UvrD; M. C. Hall et al., J. Biol. Chem., 272 (1997)

UvrD helicase, mutation of a conserved arginine in motif IV, sequence (P03018 whole entry R284A): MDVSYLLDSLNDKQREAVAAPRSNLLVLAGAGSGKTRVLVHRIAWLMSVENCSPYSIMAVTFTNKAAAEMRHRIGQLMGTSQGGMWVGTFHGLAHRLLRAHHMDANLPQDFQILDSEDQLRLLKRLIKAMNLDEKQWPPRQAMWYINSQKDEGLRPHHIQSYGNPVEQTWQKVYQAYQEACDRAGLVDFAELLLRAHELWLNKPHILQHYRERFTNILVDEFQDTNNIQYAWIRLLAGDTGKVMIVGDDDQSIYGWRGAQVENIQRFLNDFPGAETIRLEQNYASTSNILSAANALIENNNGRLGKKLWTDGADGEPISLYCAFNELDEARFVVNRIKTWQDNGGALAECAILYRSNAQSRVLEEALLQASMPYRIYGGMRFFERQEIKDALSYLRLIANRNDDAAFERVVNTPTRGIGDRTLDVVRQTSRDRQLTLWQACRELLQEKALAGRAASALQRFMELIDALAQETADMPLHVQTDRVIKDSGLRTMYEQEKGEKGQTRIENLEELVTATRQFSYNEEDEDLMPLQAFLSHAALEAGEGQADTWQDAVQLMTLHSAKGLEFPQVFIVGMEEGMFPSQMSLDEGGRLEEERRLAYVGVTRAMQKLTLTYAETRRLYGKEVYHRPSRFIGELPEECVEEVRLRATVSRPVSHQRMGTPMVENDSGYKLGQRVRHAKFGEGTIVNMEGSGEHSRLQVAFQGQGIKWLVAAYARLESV

Structure (SMILES): Nc1ncnc2c1ncn2[C@@H]1O[C@H](COP(=O)(O)OP(=O)(O)OP(=O)(O)O)[C@@H](O)[C@H]1O [ATP]
- increase of the ATP Km: 37 fold
